Results published in patent US10766855B2, “Hydroxamate triterpenoid derivatives” (VIVACELL BIOTECHNOLOGY ESPANA S.L., priority 2016, dated 2020).

What was measured:
HUVEC = assay: Endothelial cell tube formation (angiogenesis) in HUVEC co-cultured with fibroblasts; assay type: cell-based, human; conditions: 1 μM, 7 days
Description: Measurements of endothelial cell tube formation as a model of angiogenesis in green fluorescent Human endothelial vascular cells (HUVEC) co-cultured with primary fibroblasts and stimulated separately with compound VII (1 μM), rhFGF (10 ng/ml) and VEGFA (10 ng/ml) for 7 days. Values represent the mean±SEM (n=3).
To test the functional consequences of compound VII stimulation in a physiological model, endothelial cell tube formation was measured as a model of angiogenesis. CellPlayer™ GFP AngioKit-96 (Essen BioScience Inc., Welwyn Garden City, UK) was supplied as growing co-cultures of human matrix (normal human dermal fibroblast, NHDF) and endothelial cells (HUVEC) at the earliest stages of tubule formation. CellPlayer 96-well kinetic angiogenesis assay was performed according to the manufacturer's protocol. Briefly, lentivirally infected green fluorescent protein (GFP)-HUVECs were cocultured with normal human dermal fibroblasts in a 96-well microplate. The plate was placed in IncuCyte, and images were automatically acquired in both phase and fluorescence every 6 hours for 7 days. […] Tube formation over the 7-day assay was quantified using the Essen BioScience Angiogenesis Analysis Module. […] Briefly, the fluorescent images were analyzed to generate a segmentation mask closely resembling the in vitro network. […]

Erythropoietin (EPO) = assay: Plasma erythropoietin (EPO) levels in mice (ELISA); assay type: in vivo, mouse; conditions: C57BL/6 male mice, i.p., 4 hours after treatment; compound VII 30 and 60 mg/kg, Betulinic acid 60 mg/kg
Description: EPO in plasma measured using a mouse EPO ELISA kit in C57BL/6 male mice administered with compound VII (30 mg/kg or 60 mg/kg) or betulinic acid (BA) (60 mg/kg) intraperitoneally. […] Data are expressed as mean±SEM (n=3).
Erythropoietin (EPO) is one of the earliest described and most sensitive HIF target genes; being positively regulated at the transcription level. Here, the ability of compound VII to regulated EPO levels in vivo was examined. Sixteen-week-old C57BL/6 male mice were treated intraperitoneally (i.p.) with Betulinic Acid (60 mg/kg) or compound VII (30 mg/kg or 60 mg/kg). Blood samples were taken under general anaesthesia 4 hours after treatment and the circulating levels of EPO in plasma were quantified using a mouse EPO ELISA kit (R&D Systems) according to manufacturer's instructions. EPO values represent the mean±SEM (n=3).

NF-κB = NF-κB inhibition in NIH-3T3-KBF-Luc cells stimulated with TNFα; assay type: cell-based; conditions: TNFα 30 ng/ml, 6 h
Description: To further study the target selectivity of the compounds described in the present invention the effect of the natural triterpenoids (OA; BA, UA, and MA), compounds II to XV of Formula (I) disclosed in present invention, and of comparative compound CDDO-Me on NF-κB inhibition, STAT-3 inhibition, Nrf2 activation and TGR5 activation was analyzed. For this study cell lines NIH-3T3-KBF-Luc, HeLa-STAT3-Luc, HaCaT-ARE-Luc and CHO-TGR5-CRE-luc were used respectively. The NIH3T3-KBF-Luc cell line stably transfected with the plasmid KBF-Luc plasmid, which contains three copies of NF-κB binding site (from major histocompatibility complex promoter), fused to a minimal simian virus 40 promoter driving the luciferase gene. Cells (1×10^4/well) were seeded in 96-well plates, treated with increasing concentrations of the compounds II to XV for 15 min and then stimulated with 30 ng/ml TNFα. After 6 h the luciferase activity in the cell lysates was measured as indicated above.

HIF-1α = HIF-1α stabilization in 293T cells (Western blot); assay type: cell-based, human; conditions: increasing concentrations, 3 h
Description: Stimulation of human Embryonic Kidney 293 cells with increasing concentrations of compound VII or with DFX (150 μM) during 3 h. The steady state levels of the proteins HIF-1α, PHD1, PHD2 and β-actin were determined by Western blots.
Next, Human Embryonic Kidney 293 cells (293T) were stimulated with the increasing concentrations of compound VII or with DFX (150 μM) during 3 h. After that, proteins isolation and western blots were performed as in FIG. 3. The antibody against HIF-1α (610959) was from BD Biosciences (USA), the antibodies anti-PHD1 (ab80361) and anti-PHD2 (ab109088) were from Abcam (Cambrigde, UK), and the antibody anti-β-actin (AC-74) was purchased from Sigma-Aldrich (Saint Louis, Mo., USA).

STAT3 = STAT3 inhibition in HeLa-STAT3-Luc cells stimulated with IFN-γ; assay type: cell-based; conditions: IFN-γ 25 IU/ml, 6 h
Description: The HeLa-STAT3-luc cells stably transfected with the plasmid 4×M67 pTATA TK-Luc. Cells (20×10^3 cells/ml) were seeded in 96-well plates, treated with increasing concentrations of the compounds II to XIV, and of comparative compound CDDO-Me, for 15 min and then stimulated with IFN-γ 25 IU/ml. After 6 h the luciferase activity in the cell lysates was measured as indicated above. […] The HaCaT-ARE-Luc cell line contains the Nqo1 Antioxidant Response Element (ARE)-Luc reporter plasmid. ARE is activated by all members of the CNC family of factors (Nrf1, Nrf2, Nrf3 and p45 NF-E2). The cells were cultivated in 96-well plates at the concentration of 25×10^3 cells/well in a CO2 incubator at 37° C. For induction of Nrf2 activation the cells were treated with increasing concentrations of the compounds II to XV, and of comparative compound CDDO-Me, for 6 h. As a positive control the cells were treated with 0.02 mM of the antioxidant Tert-butyl-hydroquinone (TBHQ). Luciferase activity in the cell lysates was measured as indicated above and the EC50 calculated (Table III). The CHO-TGR5-CRE-Luc cells stably transfected with the pTGR5 and CRE-Luc. The CRE-responsive luciferase construct encodes the firefly luciferase reporter gene under the control of a minimal (m)CMV promoter and tandem repeats of the CRE transcriptional response element (TRE) and is useful to monitor cAMP signaling pathways activated by TGR5 agonists. Cells (1×10^4/well) were seeded in 96-well plates, treated with increasing concentrations of the compounds II to XV and CDDO-Me, for 6 h. As a positive control the cells were treated with 10 μM of LCA (lithocholic acid). Luciferase activity in the cell lysates was measured as indicated above and the EC50 calculated (Table III).

**Q.** With `C=C(C)[C@@H]1CC[C@]2(C(=O)NO)CC[C@]3(C)[C@H](CC[C@@H]4[C@@]5(C)CC[C@H](O)C(C)(C)[C@@H]5CC[C@]43C)[C@@H]12` [Compound VII, (3β) 3-Hydroxy-N-hydroxy-lup-20(29)-en-28-amide] as the compound, how does the “network length in HUVEC cells” value (HUVEC) read?
**A.** The value was “increased significantly the network length”.

**Q.** And the “circulating EPO plasma levels” value (Erythropoietin (EPO))?
**A.** Its value is “strongly increased”.

**Q.** And the IC50 (NF-κB)?
**A.** Its IC50 is > 50 µM.

**Q.** And the HIF-1α expression (HIF-1α)?
**A.** Its HIF-1α expression is “stabilized HIF-1α expression”.

**Q.** And the “expression of PHD1 and PHD2” value (HIF-1α)?
**A.** The value was “without affecting the expression of PDH1 and PDH2”.

**Q.** And the IC50 (STAT3)?
**A.** The IC50 was > 50 µM.
